The text below walks through data of patent US20230103554A1, “TNFa SIGNALING [sequence] TUMOR-PROMOTING INFLAMMATION THAT CAN BE TARGETED TO THERAPY” (Baylor College of Medicine, priority 2020, published 2023).

In one experiment the test system is monocyte IL-6 production. Put plainly: NB-monocyte co-culture, IL-6 ELISA of supernatant. The settings on record: 24 hours. It is filed as cell-based, human. As to the method: (§1) Monocytes were directly cultured with wild-type or TNF, TNFR1, TNFR2 KO NB cell lines in ULA plates for 24 hours. Activation of NF-kB in monocytes and NB was measured by flow cytometry and cytokine production measured by ELISA from co-culture supernatant. To evaluate the contact-dependence of monocyte activation by NB, monocytes were cultured in ULA plates with seven-day NB conditioned medium mixed 1:1 with complete monocyte medium for 24 hours and analyzed for IL-6 production. To assess the growth advantage of NB cultured with monocytes, NB-luc cell lines and monocytes were seeded in tissue culture-treated white 96-well plates (1:1 ratio) and cultured for four days. Luminescence was measured using a TECAN Spark plate reader (TECAN). To evaluate changes in proliferation, NB was pulsed for 10 minutes in CellTrace Violet (2 μM, Invitrogen) and seeded at 100,000 cells per well in a 12-well tissue culture-treated plate. Monocytes were added directly to the NB monolayer at a density of 100,000 per well and incubated for four days. CellTrace Violet expression was analyzed by flow cytometry.
(§2) Cytokines released by monocytes were detected within co-culture supernatants using the Human TNF-alpha Quantikine ELISA Kit (TNFα, R&D Systems) and the Human IL-6 Quantikine ELISA Kit (IL-6, R&D Systems) according to manufacturer's guidelines. ELISA plates were read using a TECAN Spark plate reader (TECAN). Global cytokine regulation was evaluated using a custom Luminex panel containing the following cytokines: CX3CL1, CXCL10, EGF, FGF-2, Flt3L, G-CSF, GM-CSF, IL-1α, IL-1β, IL-1Ra, IL-4, IL-6, IL-8, IL-10, IL-12 (p40), IL-12 (p′70), M-CSF, MCP-1, MCP-3, MDC, MIP-1α, MIP-1β, TGFα, TNFα, TNFβ, and VEGF-A (Human Cytokine Panel A, Millipore-Sigma).
On the technique in general: An ELISA detects its analyte on a solid surface through an enzyme-linked reagent.

For another experiment, the system named is sTNFα production. The experiment in a line: NB-monocyte co-culture, TNFα ELISA of supernatant. Type of experiment: cell-based, human. The conditions noted are these: 24 hours. As for the experimental part:
as §1, §2

For experiment [1], the system named is NF-κB signaling in monocytes. Put plainly: Intracellular IκBα in monocyte population of co-culture (PhosFlow flow cytometry). It is filed as cell-based, human. The conditions noted are these: 10 μg/mL etanercept. As for the experimental part:
as §1
To evaluate the expression of TNFα in NB and monocytes, cells were first stimulated with LPS (50 ng/mL) in the presence of GolgiStop (BD Biosciences) and fixed using CytoFix/Cytoperm buffer (BD Biosciences). Cells were then stained with TNFα-PE (BD Biosciences). To evaluate the expression of TNFR1 and TNFR2 on NB and monocytes, cells were stained with TNFR1-BV421 and TNFR2-APC (BD Biosciences) in FACS staining buffer containing 0.05% sodium azide to prevent receptor/antibody processing. To estimate changes in NF-kB expression, treated co-cultures were first stained with ZombieViolet (1 μL/test, Biolegend) to counterstain dead cells and APC-H7 CD45 and/or FITC-CD14 to label monocytes for 20 minutes at room temperature. […] All flow samples were run using an LSRII 5-laser flow cytometer (Texas Children's Hospital Cancer Center Flow Cytometry Core, Houston, Tex.) and analyzed using FlowJo Software (Treestar).
Background: In flow cytometry, cells or beads pass a laser one at a time.

In experiment [2] the test system is CHLA-255 monolayer and monocytes. Put plainly: Adherence of CD14+ monocytes to NB monolayer. It is filed as cell-based, human. The settings on record: CHLA-255, 10 μg/mL etanercept, four days. As for the experimental part:
Cultures were imaged at 10× magnification using Nikon DS-Fi1/Elements Software. Scale bar 50 μm. (FIG. 26B) CHLA-255 was grown to 25% confluence in 12-well tissue culture plates and overlaid with freshly isolated human monocytes. […] Non-adherent cells were gently washed with PBS before mechanical dissociation to release adherent cells. Adherent CD14+ monocytes were quantified relative to NB from samples run in triplicate. **** p<0.0001;

In experiment [3] the test system is CHLA-255-luc/monocyte xenografts. Put plainly: CHLA-255-luc/monocyte subcutaneous xenograft in NSG mice. Type of experiment: in vivo, mouse. The source says: (FIG. 16A) In vivo subcutaneous xenograft model. CHLA-255-luc and freshly isolated human monocytes were embedded in Matrigel and injected into the subcutaneous right flank of eight-week female NSG mice. […] (FIG. 16B) Luminescence readings for each mouse (n=10/group) measured in radiance (photons/second/cm2/steradian). (FIG. 16C) Graphical representation of total luminescence per tumor from (FIG. 16B) over time. (FIG. 16D) Mean tumor luminescence over time, two-way ANOVA with Bonferroni multiple comparisons test (n=10 per group). The top line is NB/Mon+Ctrl. (FIG. 16E) Representative tumors for each group following sacrifice at day 21. ** p<0.01;
Six-week old female NOD/SCID/IL-2Ry-null (NSG) mice were purchased from The Jackson Laboratory and maintained at the Baylor College of Medicine (BCM) animal care facility. At eight-weeks of age, mice were injected in the subcutaneous right flank with either 1×106 CHLA-255-luc (or SK-N-AS-luc) or a combination of 1×106 CHLA-255-luc and 1×10^6 human monocytes (or SK-N-AS-luc/monocyte) embedded in growth factor-reduced Matrigel (Corning) as previously described (54). […] Tumor growth was measured indirectly by weekly bioluminescent imaging (Small Animal Imaging Core Facility, Texas Children's Hospital). After three weeks, mice were euthanized and tumors were saved for IHC (see Tumor IHC) and RNA-seq (see RNA Analysis).

The mark [4] stands for this setting: SK-N-AS + monocytes, vs IgG control.

For the substance etanercept, the IL-6 production entry in the experiment on monocyte IL-6 production (CHLA-255 + monocytes, 10 μg/mL etanercept, vs IgG control (FIG. 15B)) was “almost entirely blocked”. The “IL-6 level in co-culture supernatant” value with monocyte IL-6 production (setting [4]) is recorded as “decrease”. The sTNFα production entry in the experiment with sTNFα production (CHLA-255 + monocytes, 10 μg/mL etanercept, vs IgG control (FIG. 15A)) is on record as “almost entirely blocked”. The “TNFα level in co-culture supernatant” value in the experiment with sTNFα production (setting [4]) is “decrease”. In addition, the “reversal of IκBα degradation in monocytes” value in experiment [1] (CHLA-255 + monocytes, 24 hours (FIG. 15C)) was “complete”. The “IκBα levels in monocytes” value in experiment [1] (SK-N-AS + monocytes, 24 hours) is recorded as “increasing monocyte levels of IκBα”. In experiment [2], the “adherence of CD14+ monocytes to NB monolayer” value was “decreased the adherence”. Further, in experiment [3] (5 mg/kg (100 μg) i.p. bi-weekly, vs IgG control), the “reduction of tumor growth (luminescence)” value is reported as 65%. In experiment [3] (etanercept bi-weekly, vs control tumors), the “macroscopic blood vessel development of treated tumors” value is recorded as “appeared to lack blood vessel development”.
